Results published in patent publication EP0542807B1, “USE OF 2-PHENYL-1,2-BENZISOSELENAZOL-3(2H)-ONE” (RHONE-POULENC RORER GMBH, priority 1990, dated 1992).

Key:
LLC-PK1 cells = test: In-vitro toxicity of cisplatin in LLC-PK1 cells (LDH-leakage, protein remaining attached to the culture plate); assay type: cell-based, porcine
Protocol: LLC-PK1 are porcine kidney cells which express many characteristics of proximal tubule epithelium. […] In this cell line the LDH-leakage can be used as criterium for cell toxicity.
Cells were seeded in 24 well culture dishes ([…]) and allowed to grow to confluence (2.4 x 10^5 cell/cm^2) over 8 days in serum containing 5 % fetal calf serum. The cells were then maintained in serum-free medium for 2 days before drug treatment. Only monolayers in which dome formation occurred were used for the experiments.
Ebselen was dissolved in 2% dimethylsulfoxide in the sterile salt solution.
After incubation, the monolayers were washed 3 times with physiological saline to remove residual drug. Subsequently, the cells were grown in medium containing 5% fetal calf serum. Cell viability was assessed at different timepoints. In control experiments, monolayers were exposed to the vehicle in stead of drugs.
In control experiments, ebselen was replaced by the vehicle.

[1] = Histology of kidneys and retroperitoneal ganglionic tissue; assay type: in vivo, BALB/c mice; details: cisplatin alone versus cisplatin and ebselen given 1 h before
Protocol: Histology. Mice were sacrificed four days after treatment with cisplatin alone or Ebselen and cisplatin. Control groups were treated with Ebselen alone or the vehicle. Kidneys and livers were removed and processed for light microscopy. Sections of 6 um thickness were cut and stained in hematoxylin : eosin. All slides were examined without prior knowledge of the treatment given to the animal from which the specimen under investigation was taken.

MPC 11 tumor cells = test: Nephrotoxicity and antitumor activity in mice inoculated with MPC 11 tumor cells; assay type: in vivo, BALB/c mice; details: for T/C: T/C=MST treated/ MST control
Source text: (§1) Tumors. MPC 11 tumor cells were obtained from the institute of Pathology, University of Utrecht, The Netherlands. The MPC 11 tumor originated as a plasmacytoma, and was originally obtained from Dr. D. Catty, Birmingham, United Kingdom. The tumor cells were maintained by weekly passages in BALB/c mice. Freshly harvested ascitic cells were used in the experiments. Cells were counted with a hemocytometer. Transplantable Prima mammary tumor cells were obtained from the Radiobiological Institute TNO, Rijswijk, The Netherlands. The Prima tumor originated as a mammary carcinoma, induced by forced breeding in BALB/c mice bearing murine mammary tumor virus. The Prima tumor cell-line was cultured in vitro in standard Dulbecco's modification of Minimal Essential Medium (Gibco, Paisley, United Kingdom), supplemented with L-glutamine (500 mg/l), 2-mercapto-ethanol (60 umol/l) and 10% fetal calf serum (Flow Laboratories, Zwanenburg, The Netherlands).
(§2) Laboratory Animals. Female BALB/c mice were obtained from the Central Institute for the Breeding of Laboratory Animals/Harlan Sprague-Dawley (CPB/HSD), Zeist, The Netherlands. The mice were 8 weeks of age and weighed 18-20 g at the start of the experiments. All animals were provided with standard laboratory food (SRMA chow, Hope Farms, Woerden, The Netherlands) and water ad libitum.
(§3) Treatment. Animals were divided at random into groups of 8. […] Ebselen was dissolved in f a mixture of dimethylsulfoxide/polyethyleneglycol/physiological saline (1/4/20) and administered i.p. in a volume of 0.6 ml.
Evaluation of Antitumor Activity. […] Control groups were treated with ebselen or the vehicle. Mice were examined daily for occurrence of tumors. The experiments were terminated on Day 42 and median survival times (MSTs) were calculated.
(§4) Statistics. Student's test, unpaired, was used to evaluate the significance of differences between experimental groups. The level of significance was set at P < 0.05.

Prima breast tumor cells = test: Nephrotoxicity and antitumor activity in mice inoculated with Prima breast tumor cells; assay type: in vivo, BALB/c mice; details: for T/C Day 15: T/C = mean tumor weight treated/control mice; for Incidence of tumors Day 8: by palpation
Source text: as §1, §2, §3
Control groups were treated with ebselen or the vehicle. The occurrance of tumors was examined daily by palpation. The experiments were terminated on Day 15 when the tumors were excised and weighed.
as §4

[2] = Acute toxicity (LD0) in mice; assay type: in vivo; details: acute investigations
Protocol: (§5) Since, in contrast to the previously known and applied selenium compounds, Ebselen is low in toxicity (LD0 > 1000 mg/kg body weight in acute investigations in mice and rats) and the maximum doses to be administered lie greatly below this value, administration to patients can be regarded as being without danger.

[3] = Acute toxicity (LD0) in rats; assay type: in vivo; details: acute investigations
Protocol: as §5

[4] = Cisplatin-induced nephrotoxicity in mice (kidney function: BUN, serum creatinine); assay type: in vivo, BALB/c mice; details: for Effect on cisplatin-induced increase of BUN and serum creatinine: Day 4
Protocol: as §2, §3
Kidney Function. […] Blood samples were obtained from the retroorbital venous plexus in the mice.
as §4

[5] = design: species or system BALB/c mice; details: mouse, in vivo
Protocol: Kidney Function. […] Blood samples were obtained from the retroorbital venous plexus in the mice. Serum creatinine and BUN were measured daily in pilot studies (data not shown) and in more extensive studies at the time of maximally observed toxicity : Day 4.
Liver Function. […] Control groups were treated with ebselen or the vehicle.

[6] = Cisplatin 11.5 mg/kg alone, n=8

## N.N.[Cl][Pt][Cl] [Cisplatin]
LLC-PK1 cells; cisplatin 0.4 mM for 1 h, time after termination of the incubation
  Time at which decrease in cell viability was first observed: 24 h
[1]
  Damage to retroperitoneal ganglionic cells: more pronounced
MPC 11 tumor cells; Cisplatin 4.0 mg/kg alone
  T/C: 150%
MPC 11 tumor cells; Cisplatin 4.0 mg/kg alone, n=8
  Incidence of tumors Day 7: 100%
  MST: 24 ± 4 days
MPC 11 tumor cells; Cisplatin 6.5 mg/kg alone
  T/C: 181%
MPC 11 tumor cells; Cisplatin 6.5 mg/kg alone, n=8
  Incidence of tumors Day 7: 100%
  MST: 29 ± 4 days
MPC 11 tumor cells; Cisplatin 9.0 mg/kg alone
  T/C: >300%
MPC 11 tumor cells; Cisplatin 9.0 mg/kg alone, n=8
  Incidence of tumors Day 7: 0%
  MST: >30 days
MPC 11 tumor cells; Cisplatin 11.5 mg/kg alone
  T/C: >300%
MPC 11 tumor cells; [6]
  Incidence of tumors Day 7: 0%
  MST: >48 days
MPC 11 tumor cells; Cisplatin 14.5 mg/kg alone, n=8
  Incidence of tumors Day 7: 0%
Prima breast tumor cells; Cisplatin 6.5 mg/kg alone
  T/C Day 15: 93%
  Incidence of tumors Day 8: 100%
Prima breast tumor cells; Cisplatin 6.5 mg/kg alone, n=8
  Mean tumor weight Day 15: 1.4 ± 0.2 g
Prima breast tumor cells; Cisplatin 9.0 mg/kg alone
  T/C Day 15: 47%
  Incidence of tumors Day 8: 0%
Prima breast tumor cells; Cisplatin 9.0 mg/kg alone, n=8
  Mean tumor weight Day 15: 0.7 ± 0.4 g
Prima breast tumor cells; Cisplatin 11.5 mg/kg alone
  T/C Day 15: 28%
  Incidence of tumors Day 8: 0%
Prima breast tumor cells; [6]
  Mean tumor weight Day 15: 0.42 ± 0.08 g
Prima breast tumor cells; Cisplatin 14.5 mg/kg alone
  T/C Day 15: 7%
  Incidence of tumors Day 8: 0%
Prima breast tumor cells; cisplatin 9.0 and 11.5 mg/kg
  Efficacy against the Prima mammary tumor: effective
Prima breast tumor cells; cisplatin […] alone, n=8
  Mice with tumors as assessed by palpation on Day 7: None

## O=c1c2ccccc2[se]n1-c1ccccc1 [Ebselen, 2-phenyl-1,2-benzisoselenazol-3(2H)-one]
[2]
  LD0: > 1000 mg/kg body weight
[3]
  LD0: > 1000 mg/kg body weight
LLC-PK1 cells; 10 uM Ebselen 1 h, then 0.4 mM cisplatin 1 h, whole period up till 72 h
  Cell viability versus cells not pre-exposed (time course): significantly higher
LLC-PK1 cells; pre-incubation 1 h before cisplatin, concentration-dependent
  Ebselen concentration of highest protection: 15 µM
LLC-PK1 cells; pre-incubation with Ebselen 5-15 uM for 1 h, then 0.2 or 0.4 mM cisplatin 1 h, t = 72 h
  Protection from cisplatin-induced decrease in viability: protected the cells from a decrease in viability
LLC-PK1 cells; pre-incubation with ebselen, cisplatin 0.8 mM for 1 h
  Protection from cisplatin-induced decrease in viability: could not protect the cells against the decrease in viability
[4]; Ebselen 1 h before cisplatin 11.5 to 19.0 mg/kg
  Effect on cisplatin-induced increase of BUN and serum creatinine: prevented the increase in levels of BUN and serum creatinine at all cisplatin doses tested with exception of the highest dose
[4]; cisplatin 14.5 mg/kg, ebselen i.p. 1 h before
  Ebselen dose of maximal protection against cisplatin-induced nephrotoxicity: 10.0 mg/kg
[4]; ebselen 1 h after cisplatin
  Effect on cisplatin-induced increase of BUN and serum creatinine: a protective effect against cisplatin-induced elevations of the levels of BUN and serum creatinine was also observed, but less marked
[5]
  Functional liver- or kidney-damage: did not cause functional liver- or kidney-damage
MPC 11 tumor cells; Ebselen 10.0 mg/kg alone
  T/C: 106%
MPC 11 tumor cells; Ebselen 10.0 mg/kg alone, n=8
  Incidence of tumors Day 7: 100%
  MST: 17 ± 2 days
  Survival Day 7: 100%
MPC 11 tumor cells; MPC 11 plasmacytoma, ebselen i.p. 1 h prior to cisplatin
  Influence on the antitumor activity of cisplatin: did not reduce the antitumor activity of cisplatin
MPC 11 tumor cells; ebselen alone
  MST versus vehicle control: identical to that of the control group
Prima breast tumor cells; Ebselen 10 mg/kg 1 h before cisplatin
  Influence on the antitumor activity of cisplatin: did not reduce the antitumor activity of cisplatin
Prima breast tumor cells; Ebselen 10 mg/kg alone
  Efficacy against the Prima tumor: not effective
Prima breast tumor cells; Ebselen 10.0 mg/kg alone
  T/C Day 15: 100%
  Incidence of tumors Day 8: 100%
Prima breast tumor cells; Ebselen 10.0 mg/kg alone, n=8
  Mean tumor weight Day 15: 1.5 ± 0.4 g
  Survival Day 8: 100%
